Reference: patent publication US9150571B2, “Crystalline forms of fused amino pyridines as HSP90 inhibitors” (Debiopharm International SA, priority 2011, dated 2015)
Values after ≈ are worked out from the molar mass of the structure shown.

Assays:
Type in all cases: physicochemical
[1] = Interconversion experiments in ethyl acetate suspension (thermodynamic stability of forms), XRPD; conditions: for temperature range in which the form is the most stable polymorph (Form I/II transition): from interconversion experiments at 5, 10, 15, 21 & 60° C.
Experimental: Interconversion experiments were carried out using Forms I, II and III at 5° C., 10° C., 15° C., 21° C. and 60° C. in ethyl acetate. Suspensions of approximately equivalent amounts (about 75 mg) of each form in ethyl acetate (1.2 mL) were prepared and agitated at different temperatures. The slurries were stirred and sampled periodically (200 μL aliquot) after 30 mins and over the period of 10 days or until when near complete or complete conversion had occurred. The sampled aliquot was filtered, air dried and analyzed by XRPD.
In solvent mediated conversions, seeds of all Forms are present and there is no activation energy barrier to interconversion. This technique is used to identify the ‘true’ transition temperature and the thermodynamic relationship between the Forms. In order to determine the order of stability between each individual form interconversion experiments were performed using suspensions of pairs of each form in ethyl acetate at 5, 10 and 15° C. and suspensions of all Forms together at 21° C. and 60° C. The stirred suspensions of Forms I, II and III were sampled after 0.5 hr (t0), after 1, 2 and 3 days (t1-3) and 6 and 10 days if required.

[2] = Dynamic vapour sorption (DVS) hygroscopicity
Experimental: Dynamic Vapour Sorption (DVS) was performed using a Hiden Analytical Instruments IGAsorp Vapour Sorption Balance. Approximately 15 mg of sample was placed into a wire-mesh vapour sorption balance pan, loaded into the IGAsorp vapour sorption balance and held at 25° C.±0.1° C. The sample was subjected to a step profile from 0 to 90% RH at 10% increments, followed by desorption from […] to 0% RH at 10% increments. The equilibrium criterion was set to 99.5% step completion within a minimum of 60 minutes and a maximum of 10 hours for each increment. The weight change during the sorption cycle was monitored, allowing for the hygroscopic nature of the sample to be determined. The data collection interval was in seconds.
DVS analysis was used to investigate the hygroscopicity of Compound 1 Form I (FIG. 11). […] The overall weight gain up to 95% RH was 0.06% and weight gained up to 80% RH only 0.08%.
After completion of the cycle, the sample was removed from the instrument and no weight change was observed.

[3] = Solubility, EP (European Pharmacopoeia) aliquot addition method; conditions: 25° C., EP method (kinetic solubility)
Experimental: All samples to be tested were passed through number 180 and number 125 sieves to ensure that they were finely powdered prior to testing, i.e. not less than 95% of sample mass passed through a […] sieve and not more than 40% passed through a 38 μm sieve.
The vial containing the test material and chosen solvent was shaken on a vortex mixer for 1 minute. The vial was placed in a water bath maintained at 25° C.±0.5° C. for 15 minutes. If particles were still remaining, the vial was shaken again for 1 minute using the vortex mixer and returned to the water bath for a further 15 minutes.
Approximately 100 mg of the test material was weighed into a vial and 0.1 mL of the chosen solvent was added. This was treated as described in the procedure above. […] After each addition of solvent the contents of the vial were treated as described in the dissolving procedure. […] After the dissolving procedure was complete, the solubility of the material was visually determined. […] Results obtained were reported.
The solubility of Compound 1 Form I was determined by two different methods. The EP (European Pharmacopoeia) method is an aliquot addition method which gives a rough assessment of kinetic solubility. The equilibrium method requires the suspension of solid for an extended period in the dissolving medium. […]

[4] = Equilibrium solubility in buffer, HPLC
Experimental: Approximately 25 mg of test substance was weighed into glass test tubes. The relevant volume of buffer solution (10 mL) was added to each vessel. The tests were performed in duplicate. The vessels were lightly sealed and agitated at 25°C. in a shaking thermostatted water bath protected from light. Sampling was performed after 24 hours and thereafter not less than 20 hours between sample time points. Sampling was performed by filtration of a portion of the test slurry through a 0.2 μm filter and dilution in appropriate media for HPLC analysis.
Equilibrium solubility was determined by HPLC by using:
[formula] where the Standard Purity was taken as 95%.
(§1) Buffer pH 7.0 samples were prepared by removing approximately 1 mL of the solution from the appropriate glass test tube and filtering into a HPLC vial using a PTFE 0.2 μm syringe filter. The concentration of the Compound 1 in the filtrate was determined by comparison with data of the standard sample (about 0.25 mg/g).
as §1, with “5.0” for “7.0”, “The filtered solution was diluted by a factor of 5 and approximately 1 mL of this solution was added into a HPLC vial for analysis. The” for “The”
At the end of the solubility study, the solids were isolated from the experimental slurries, filtered, dried and analyzed by XRPD in order to determine the physical form.
The solubility of Compound 1 Form I was determined by two different methods. The EP (European Pharmacopoeia) method is an aliquot addition method which gives a rough assessment of kinetic solubility. The equilibrium method requires the suspension of solid for an extended period in the dissolving medium. […] The EP method indicated solubility of Compound 1 Form I to be insoluble in water and be soluble in ethanol at 33-100 mg/ml.
The concentration of the samples was assessed by HPLC.

[5] = Intrinsic dissolution rate (IDR); conditions: pH 5.0 USP buffer, 37° C., 50 RPM; Form I from one non capped pellet
Experimental: For intrinsic dissolution studies (IDR) an isocratic HPLC method with a shorter run time (10 mins) was used due to the high number of sample analyses required (Table 2).
Distek 8 mm intrinsic dissolution apparatus was used for the study. The three fixed screws on the surface plate were inserted through the three holes on the die and fastened with the supplied washers and nuts. 100 mg of test material was placed in the die cavity. The punch was inserted into the cavity and compressed, with the aid of a bench top hydraulic press for 30 sec at 1 ton pressure. The surface plate was disconnected from the die to expose a compact pellet of 0.5 cm^2 surface area. The pellets were checked for any breaks and cracks on the surface. Only the pellets with flat even surface with no irregularities were used for the study. The Viton gasket was placed around the threaded shoulder of the die and a polypropylene cap was screwed on to the threads. The assembly was immersed, pellet side up, into the bottom of the dissolution vessel (flat bottom) containing dissolution medium at 37° C. The media is degassed under helium purge for 15 min prior to use.
• Dissolution media: pH 5.0 USP buffer • Vessel volume: 900 mL • Rotation speed: 50 RPM • Temperature: 37° C.±0.5° C. • Sampling time points: 30, 60, 90, 120 and 150 mins • Sample size: 1 mL • Sample analysis: By HPLC (conditions in Table 2 above)
Three samples of Form I, II, III and trihydrate were checked for IDR in USP pH 5.0 buffer. The samples were checked for any changes in their surface after dropping into the dissolution medium. […] The particles relax on contact with water during dissolution, causing capping of the surface. So IDR was calculated for Form I based on drug release from one non capped pellet. […] The samples were collected manually through a cannula fitted with 10 μm inline filters. The samples collected from dissolution run were analyzed by HPLC.
The average of all three runs was used to plot and calculate the IDR of samples, with the exception of Form I. The average dissolution profile for each Form is shown in FIG. 12.
After the dissolution test, the remaining portion of the pressed discs were dried in air and examined by XRPD.

[6] = Critical water activity for trihydrate formation in acetone/water; conditions: 21° C.
Experimental: Experiments to determine the critical water activity level with respect to trihydrate formation were performed in acetone/water. Different % v/v ratios of water in acetone were used for suspensions at 21° C. […] Using the Wilson VLE model, this equates to 0.38-0.49 or 0.35-0.44 using the UNIFAC model. This provides useful information for process chemists and formulators in later development.

CN(C)c1cc2c(cc1Sc1nc3c(N)nccc3n1CCNCC(C)(C)C)OCO2 [Compound 1 Form I]
thermodynamically most stable form ([1]; 21° C., ethyl acetate suspension of Forms I, II and III): thermodynamically most stable form
thermodynamically most stable form ([1]; 60° C., ethyl acetate suspension of Forms I, II and III): thermodynamically most stable form
temperature range in which the form is the most stable polymorph (Form I/II transition) [1]: above 18±2 °C
weight gained up to 80% RH ([2]; DVS, 25° C., up to 80% RH): 0.08%
overall weight gain up to 95% RH ([2]; DVS, 25° C., up to 95% RH): 0.06%
hygroscopicity classification (European Pharmacopoeia) ([2]; weight increase at 80% RH (25° C.)): non-hygroscopic
solubility at 15 min ([3]; organic solvent or mixture, ethanol): 33 to 100 mg/mL (≈ 74.6 to 226 mM)
solubility in water (EP method) ([3]; water): insoluble
MEAN SOLUBILITY pH 5.1 ([4]; day 1, buffer pH 5.1, 25°C): 1.101 MG/G
MEAN SOLUBILITY pH 7.0 ([4]; day 1, buffer pH 7.0, 25°C): 0.074 MG/G
MEAN SOLUBILITY pH 5.1 ([4]; day 2, buffer pH 5.1, 25°C): 0.735 MG/G
MEAN SOLUBILITY pH 7.0 ([4]; day 2, buffer pH 7.0, 25°C): 0.043 MG/G
MEAN SOLUBILITY pH 5.1 ([4]; day 3, buffer pH 5.1, 25°C): 0.587 MG/G
MEAN SOLUBILITY pH 7.0 ([4]; day 3, buffer pH 7.0, 25°C): 0.031 MG/G
MEAN SOLUBILITY pH 5.1 ([4]; day 4, buffer pH 5.1, 25°C): 0.507 MG/G
MEAN SOLUBILITY pH 7.0 ([4]; day 4, buffer pH 7.0, 25°C): 0.025 MG/G
IDR [5]: 0.101 mg cm^−2 min^−1

CN(C)c1cc2c(cc1Sc1nc3c(N)nccc3n1CCNCC(C)(C)C)OCO2 [Form III]
IDR [5]: 0.266 mg cm^−2 min^−1

CN(C)c1cc2c(cc1Sc1nc3c(N)nccc3n1CCNCC(C)(C)C)OCO2 [Form II]
thermodynamically most stable form ([1]; 5° C., ethyl acetate suspension of pairs of forms): thermodynamically most stable form
thermodynamically most stable form ([1]; 10° C., ethyl acetate suspension of pairs of forms): thermodynamically most stable form
thermodynamically most stable form ([1]; 15° C., ethyl acetate suspension of pairs of forms): thermodynamically most stable form
temperature range in which the form is the most stable polymorph (Form I/II transition) [1]: lower than 18±2 °C
IDR [5]: 0.098 mg cm^−2 min^−1

CN(C)c1cc2c(cc1Sc1nc3c(N)nccc3n1CCNCC(C)(C)C)OCO2 [Trihydrate]
critical water activity, UNIFAC model ([6]; UNIFAC model): 0.35-0.44
critical water activity, Wilson VLE model ([6]; Wilson VLE model): 0.38-0.49
IDR [5]: 0.184 mg cm^−2 min^−1
